This note sets out measurements from US9701680B2, “Pyrimidine and pyridine compounds and their usage” (HUTCHISON MEDIPHARMA LIMITED, priority 2013, dated 2017).

One test has as its target Recombinant human FGFR1 (Homo sapiens, UniProt P11362). The experiment in a line: Transcreener Kinase Assay of FGFR1. Type of test: biochemical. Summed up:
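Recombinant human FGFR1 was reacted with Poly E4Y substrate and ATP for 45 min at 28 °C, with compounds at 1 to 0.0005 µM in 1% DMSO final. Inhibition is relative to the DMSO control, with IC50 from a curve fit.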

Another test addresses Recombinant human FGFR2 (Homo sapiens, UniProt P21802). The test is described as follows: Transcreener Kinase Assay of FGFR2. Type of test: biochemical.
The target in the next test is FGFR3 kinase (Homo sapiens, UniProt P22607). The test is described as follows: Z-Lyte Kinase Assay of FGFR3. Type of test: biochemical. The procedure, abridged:
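Z-LYTE FRET assay, kinase 0.7 μg/ml with Tyr 4 peptide 4 μM (P/K solution), ATP diluted to 300 uM in 1.33× buffer; compound final 1 to 0.00046 μM, 2% DMSO.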

The next test relates to KG-1. The experiment in a line: Cellular Proliferation Assay (Cell Counting Kit-8), KG-1. Format: cell-based. The conditions noted are these: Homo sapiens; KG-1 cells, 72 hours; read-out: KG1 IC50. Summed up:
(§1)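 Seeding per well: KG-1 30000, SNU-16 5000, RT-112 1000 cells. After 24 h an 8-point series (working dilutions 10 to 0.004 μM in 5% DMSO) was added for 72 h at 37 °C, 5% CO2. CCK-8 OD450 after 1 h, corrected for media background and normalised to untreated cells, gave IC50.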
In general terms: Formazan colour is commonly taken as a measure of viable cells.

The next test concerns SNU-16. The test is described as follows: Cellular Proliferation Assay (Cell Counting Kit-8), SNU-16. Type of test: cell-based. The conditions noted are these: Homo sapiens; SNU-16 cells, 72 hours. The procedure, abridged:
as §1

The subject of another test is RT-112. The test is described as follows: Cellular Proliferation Assay (Cell Counting Kit-8), RT-112. Type of test: cell-based. The conditions noted are these: Homo sapiens; RT-112 cells, 72 hours. The procedure, abridged: as §1

Structures are written as SMILES. Like-named read-outs stand apart in the source and are kept apart here.

The IC50 is the concentration that gives 50% inhibition.

FGFR3 kinase, sequence (P22607 23-806): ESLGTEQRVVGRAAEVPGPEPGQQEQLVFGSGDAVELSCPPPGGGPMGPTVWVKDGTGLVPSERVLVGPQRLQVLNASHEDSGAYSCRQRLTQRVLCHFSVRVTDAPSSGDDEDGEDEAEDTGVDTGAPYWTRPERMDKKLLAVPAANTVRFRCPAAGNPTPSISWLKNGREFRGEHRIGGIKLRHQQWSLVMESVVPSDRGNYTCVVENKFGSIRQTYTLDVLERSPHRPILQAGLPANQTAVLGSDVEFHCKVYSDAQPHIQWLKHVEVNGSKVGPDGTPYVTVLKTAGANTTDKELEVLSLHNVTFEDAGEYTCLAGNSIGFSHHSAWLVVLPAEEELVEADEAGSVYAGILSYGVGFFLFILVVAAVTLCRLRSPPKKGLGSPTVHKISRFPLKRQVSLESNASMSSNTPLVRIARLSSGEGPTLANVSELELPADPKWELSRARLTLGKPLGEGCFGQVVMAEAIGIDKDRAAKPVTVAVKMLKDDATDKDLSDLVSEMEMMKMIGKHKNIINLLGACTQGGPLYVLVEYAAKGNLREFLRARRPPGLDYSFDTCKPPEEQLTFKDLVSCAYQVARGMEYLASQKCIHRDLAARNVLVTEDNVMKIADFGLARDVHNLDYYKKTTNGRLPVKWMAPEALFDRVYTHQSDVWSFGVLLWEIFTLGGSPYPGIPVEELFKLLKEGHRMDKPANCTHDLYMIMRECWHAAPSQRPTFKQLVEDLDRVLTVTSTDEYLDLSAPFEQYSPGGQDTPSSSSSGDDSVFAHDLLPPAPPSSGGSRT
Recombinant human FGFR1, sequence (P11362 22-822): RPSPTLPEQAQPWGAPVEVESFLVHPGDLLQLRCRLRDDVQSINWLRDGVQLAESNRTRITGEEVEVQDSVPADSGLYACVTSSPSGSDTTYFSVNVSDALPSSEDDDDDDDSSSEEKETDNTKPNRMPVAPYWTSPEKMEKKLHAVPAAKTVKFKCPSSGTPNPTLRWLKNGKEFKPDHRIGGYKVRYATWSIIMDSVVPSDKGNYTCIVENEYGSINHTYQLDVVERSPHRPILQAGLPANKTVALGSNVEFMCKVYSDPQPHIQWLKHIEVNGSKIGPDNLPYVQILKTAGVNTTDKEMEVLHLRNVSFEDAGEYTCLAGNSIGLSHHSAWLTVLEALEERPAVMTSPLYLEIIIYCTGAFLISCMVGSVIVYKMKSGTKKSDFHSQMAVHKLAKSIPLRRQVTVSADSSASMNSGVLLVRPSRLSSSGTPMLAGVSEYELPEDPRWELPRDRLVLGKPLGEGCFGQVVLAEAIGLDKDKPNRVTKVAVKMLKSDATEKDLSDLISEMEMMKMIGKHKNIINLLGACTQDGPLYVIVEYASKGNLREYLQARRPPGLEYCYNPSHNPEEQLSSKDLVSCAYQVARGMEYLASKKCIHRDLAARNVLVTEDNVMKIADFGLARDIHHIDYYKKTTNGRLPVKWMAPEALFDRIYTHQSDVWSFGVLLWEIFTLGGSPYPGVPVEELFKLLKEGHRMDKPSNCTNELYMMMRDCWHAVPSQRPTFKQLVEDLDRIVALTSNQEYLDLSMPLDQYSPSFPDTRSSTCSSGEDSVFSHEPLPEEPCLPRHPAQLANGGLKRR
Recombinant human FGFR2, sequence (P21802 22-821): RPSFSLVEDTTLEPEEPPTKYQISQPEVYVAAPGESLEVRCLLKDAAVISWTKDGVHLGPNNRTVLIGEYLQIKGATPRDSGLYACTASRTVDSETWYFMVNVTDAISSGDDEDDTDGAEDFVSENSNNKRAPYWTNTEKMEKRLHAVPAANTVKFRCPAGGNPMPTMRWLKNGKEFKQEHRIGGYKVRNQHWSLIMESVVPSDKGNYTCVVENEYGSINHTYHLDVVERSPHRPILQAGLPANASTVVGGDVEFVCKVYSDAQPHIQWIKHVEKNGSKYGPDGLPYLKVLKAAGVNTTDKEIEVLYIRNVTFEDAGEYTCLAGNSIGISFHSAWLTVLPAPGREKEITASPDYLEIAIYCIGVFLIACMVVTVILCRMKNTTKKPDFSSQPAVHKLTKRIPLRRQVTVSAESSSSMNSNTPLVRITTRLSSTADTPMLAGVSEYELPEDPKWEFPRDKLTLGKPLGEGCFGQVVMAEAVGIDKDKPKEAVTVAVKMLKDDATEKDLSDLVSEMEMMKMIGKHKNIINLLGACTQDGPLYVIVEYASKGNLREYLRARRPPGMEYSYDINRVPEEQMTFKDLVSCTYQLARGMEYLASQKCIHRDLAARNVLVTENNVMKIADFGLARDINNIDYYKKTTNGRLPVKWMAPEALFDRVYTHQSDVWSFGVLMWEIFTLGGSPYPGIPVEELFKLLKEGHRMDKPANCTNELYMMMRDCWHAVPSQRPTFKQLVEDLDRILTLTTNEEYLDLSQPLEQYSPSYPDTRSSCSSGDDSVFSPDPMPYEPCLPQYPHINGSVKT

Consider `CNC(=O)c1cc(OC)c(Cl)c(COc2cnc(Nc3ccc(N4C[C@@H](C)N[C@@H](C)C4)c(C)c3)nc2)c1F` [Compound 298], for which the IC50 stood at 9 nM on Recombinant human FGFR1 (FP); 8 nM on Recombinant human FGFR2 (FP); 13 nM against FGFR3 kinase (Z-lyte); 8 nM in the test on KG-1; 14 nM in the test with SNU-16; 15 nM with RT-112.
Regarding `CNC(=O)c1cc(OC)c(F)c(COc2cnc(Nc3ccc(N4C[C@@H](C)N[C@@H](C)C4)nc3)nc2)c1F` [Compound 278], the half-inhibitory concentration (IC50) at Recombinant human FGFR1 (FP) amounted to 23 nM; at Recombinant human FGFR2 (FP) it was 14 nM; against FGFR3 kinase (Z-lyte), 20 nM; in the test on KG-1, 34 nM; in the test on SNU-16, 27 nM; with RT-112, 65 nM.
For the compound `CNC(=O)c1cc(COc2cnc(Nc3cccc(S(C)(=O)=O)c3)nc2)c(F)c(OC)c1` [Compound 227], the IC50 on Recombinant human FGFR1 (read-out: FGFR1 (FP) IC50) was found to be 23 nM; on Recombinant human FGFR2 (read-out: FGFR2 (FP) IC50), 8 nM; against FGFR3 kinase, 25 nM; in the test with KG-1, 35 nM; in the test on SNU-16 it was 20 nM; with RT-112, 85 nM.
Take `CNC(=O)c1cc(COc2cnc(Nc3ccc([C@H]4CCCN(C(C)=O)C4)nc3)nc2)c(Cl)c(OC)c1` [Compound 284]: the IC50 at Recombinant human FGFR1 (FP) amounted to 39 nM; on Recombinant human FGFR2 (FP) it was 24 nM; against FGFR3 kinase (Z-lyte) it was 43 nM; in the test with KG-1, 71 nM; with SNU-16, 33 nM; in the test with RT-112 it was 72 nM.
